Measurements from US11691992B2 (Anacor Pharmaceuticals, Inc., priority 2017, dated 2023).
Where two headings read alike, the source gives them in different places.

Experiments:
[1] = system: STIB719/ILRAD560 T. vivax (drug sensitive) strain; test: Ex vivo Alamar Blue 48 h drug sensitivity assay for T. vivax; type: cell-based; settings: Trypanosoma vivax, ex vivo bloodstream forms from mouse, 45 hrs + 3 hrs resazurin, read-out: IC50: I Hypoxanthine Incorporation T. vivax STIB 719/ILRA D 560, 2 d
Method: Example 109. Ex Vivo Alamar Blue 48 h Drug Sensitivity Assay for T. vivax
[…] Test compounds were prepared as 10 mg/mL DMSO stocks for each assay run. Compounds were assayed in at least three separate, independent test runs and an 11-point dilution curve was used to determine the IC50 values. Bloodstream form trypanosomes were propagated and harvested from a highly parasitemic mouse (via cardiac puncture) and were incubated with test compounds for 45 hrs at 37° C. in a humidified atmosphere containing 5% CO2, supported in HMI media containing 20% bovine serum. […] Plates were then read using a fluorescent plate reader (Spectramax, Gemini XS, Bucher Biotec, Basel, Switzerland) using an excitation wavelength of 536 nm and an emission wavelength of 588 nm. Data points were averaged to generate sigmoidal dose-response curves and IC50 values were determined using Softmax Pro 5.2 software.

[2] = system: T. cruzi Tulahuen strain C2C4 containing the β-galactosidase (Lac Z) gene in rat skeletal myoblasts (L-6 cells); test: Trypanosoma cruzi C2C4 screening assay; type: cell-based
Method: Example 113: Trypanosoma cruzi C2C4 Screening Assay Procedure
Rat skeletal myoblasts (L-6 cells) were seeded in 96-well microtiter plates at 2×10^3 cells/well in 100 μL RPMI 1640 medium with 10% FBS and 2 mM L-glutamine. After 24 h the medium was removed and replaced by 100 μL per well containing 5×10^3 trypomastigote forms of T. cruzi Tulahuen strain C2C4 containing the β-galactosidase (Lac Z) gene (Buckner, et al., Antimicrobial Agents and Chemotherapy, 40: 2592-2597 (1996)). After 48 h the medium was removed from the wells and replaced by 100 μL fresh medium with or without a serial drug dilution of the seven 3-fold dilution steps covering a range from 90 to 0.123 μg/mL. After 96 h of incubation the plates were inspected under an inverted microscope to assure growth of the controls and sterility. The substrate (50 μL) chlorophenol red-β-D-galactopyranoside (CPRG, Roche Diagnostics, Ltd) in 0.25% Nonidet P-40/PBS was added to all wells and a color reaction developed within 2-6 h which was read photometrically at 540 nm. Data were transferred into the graphic program Softmax Pro (Molecular Devices), which calculated IC50 values.

[3] = L6, in L-6 cells, 96 h, CPRG, read-out: SCYNEXIS IC50: I Org. Growth T. cruzi Tulahuen C2C4 Lac Z, 4 d
[4] = L6, 96 h, read-out: SCYNEXIS IC50: I Org. Growth T. cruzi Tulahuen C2C4 Lac Z, 4 d [uM]

`O=C(Nc1ccc2c(c1)B(O)OC2)c1cn(-c2ccc(F)cc2)nn1` [Example 60, 1-(4-Fluorophenyl)-N-(1-hydroxy-1,3-dihydrobenzo[c][1,2]oxaborol-6-yl)-1H-1,2,3-triazole-4-carboxamide] gave an IC50 [1] of 201 to 500 nM and an IC50 [2, 3] of 0.06 to 0.1 µM.
`O=C(Nc1ccc2c(c1)B(O)OC2)c1nnn(-c2ccccc2)c1C(F)(F)F` [Example 68, N-(1-hydroxy-1,3-dihydrobenzo[c][1,2]oxaborol-6-yl)-1-phenyl-5-(trifluoromethyl)-1H-1,2,3-triazole-4-carboxamide] gave an IC50 [2, 4] of 0.11 to 1 µM.
`Cc1c(C(=O)Nc2ccc3c(c2)B(O)OC3)nnn1-c1ccccn1` [Example 84, N-(1-hydroxy-1,3-dihydrobenzo[c][1,2]oxaborol-6-yl)-5-methyl-1-(pyridin-2-yl)-1H-1,2,3-triazole-4-carboxamide] was tested, and the IC50 [2, 3] was under 0.06 µM.
Work on `O=C(Nc1ccc2c(c1)B(O)OC2)c1cn(-c2ccccn2)nn1` [Example 61, N-(1-hydroxy-1,3-dihydrobenzo[c][1,2]oxaborol-6-yl)-1-(pyridin-2-yl)-1H-1,2,3-triazole-4-carboxamide] yielded an IC50 [2, 3] of under 0.06 µM.
`Cc1c(C(=O)Nc2ccc3c(c2)B(O)OC3)nnn1-c1ccccc1` [Example 89, A-(1-hydroxy-1,3-dihydrobenzo[c][1,2]oxaborol-6-yl)-5-methyl-1-phenyl-1H-1,2,3-triazole-4-carboxamide] was tested, and the IC50 [2, 4] was under 0.06 µM.
